Measurements from patent US20240307374A1, “FORMULATION OF FURIN INHIBITOR FOR INHALATION” (BP ASSET V, INC., priority 2021, published 2024).
In brackets after ≈: the same amount, converted by molar mass. Several values for one entry are separate records, joined by “and”; a condition that tells them apart may be missing. Identical values can stand only once. Entries after “also recorded” stand apart in the source; their conditions may differ.

Legend:
[1] = pKa test, spectrophotometric method (UV-metric pKa); format: physicochemical
Method: (§1) The spectrophotometric method (UV-metric pKa) and potentiometric method (pH-metric pKa) were used for pKa test of Compound (I) freeform.
1. For UV-metric pKa, the pKa values were determined by monitoring the change in UV absorbance with pH as the compound undergoes ionization.
(§2) The psKa values were extrapolated to 0% organic content using the Yasuda-Shedlovsky extrapolation procedure for pKa values.

[2] = pKa test, potentiometric method (pH-metric pKa); format: physicochemical; conditions: MeOH cosolvent, Yasuda-Shedlovsky extrapolation
Method: as §1
2. For pH-metric pKa, the pKa values were determined from an examination of the shape of the resultant titration curves and fitting a suitable theoretical model for the compound's ionization behavior onto the titration data.
as §2

[3] = Log D7.4 test, n-octanol/aqueous (pH=7.4) shake flask method; format: physicochemical
Method: The detailed procedure is summarized below. • 1. Pre-equilibrate n-octanol and aqueous buffer by adding 10 mL n-octanol and 10 mL aqueous buffer into a glass vial and keep it rolling for 24 h. The mutually saturated n-octanol and aqueous buffer are obtained after phase separation. • 2. Weigh approximately 1.0 mg sample into a 3-mL glass vial with 1.0 mL of saturated n-octanol inside (obtained in step 1 above) and accelerate dissolution by ultrasonication. • 3. Add 1.0 mL of complementary saturated aqueous buffer into the vial. • 4. Prepare samples in triplicate. Seal the glass vial and mix on a rotary mixer at 25° C. for 24 h. • 5. The phases are separated after rolling. • 6. The concentrations of the compound in each phase are determined by HPLC. Samples in n-octanol phase are diluted 10 times by adding 100 μL of sample solution and 900 µL of ACN/H2O (v/v, 3:1) diluent and mixed well. • 7. Distribution coefficient, referred to as Dow, is calculated as the concentration of the test compound (both ionized and un-ionized) in the n-octanol phase divided by the corresponding concentration in the aqueous phase.

[4] = Equilibrium solubility in pH buffers (3.0-8.0), 20% captisol and water; format: physicochemical; conditions: H2O, RT, 24 hrs
Method: Additional solids were added into the sample to generate suspension if clear solution obtained. The suspension was equilibrated via stirring (1000 rpm). The suspension was centrifuged to obtain precipitate and supernatants.
Solubility and pH were tested for the supernatants after filtration, and isolated precipitate was tested by XRPD.
(§3) • 1. pH=3.0 buffer (50 mM HCl+KCl): Weigh 365.39 mg KCl into a 100 mL volumetric flask (VF), and add 0.1 mL 1M HCl into the VF, and dilute to volume with water. • 2. pH=4.0 buffer (50 mM citrate): Weigh 56.74 mg citric acid and 60.18 mg trisodium citrate into a 10 mL volumetric flask, and dilute to volume with water. • 3. pH=5.0 buffer (50 mM citrate) Weigh 11.12 mg citric acid and 95.38 mg trisodium citrate into a 10 mL volumetric flask, and dilute to volume with water. • 4. pH=6.0 buffer (50 mM citrate) Weigh 11.04 mg citric acid and 130.2 mg trisodium citrate into a 10 mL volumetric flask, and dilute to volume with water. • 5. pH=6.0 buffer (50 mM phosphate) Weigh 8.7 mg Na2HPO4 and 52.6 mg NaH2PO4 into a 10 mL volumetric flask, and dilute to volume with water. • 6. pH=7.0 buffer (50 mM phosphate) Weigh 23.47 mg Na2HPO4 and 43.34 mg NaH2PO4into a 10 mL volumetric flask, and dilute to volume with water. • 7. pH=8.0 buffer (50 mM phosphate) Weigh 31.64 mg Na2HPO4 and 67.18 mg NaH2PO4into a 10 mL volumetric flask, and dilute to volume with water.

[5] = Equilibrium solubility in pH buffers (pH 4.0-6.0) with pH adjustment; format: physicochemical; conditions: pH = 4.0 buffer (50 mM citrate), RT, with pH adjustment
Method: In details, ˜5 mg of solids were suspended into 1 mL of each medium with dosing conc. at ˜5 mg/mL. Additional solids were added into the sample to generate suspension if clear solution was obtained. The suspension was equilibrated via stirring (1000 rpm) for 24 hours. The pH of the suspension was adjusted when the final pH shifted above 0.3, and the samples were stirred for another 1.5 hours after pH adjustment. The suspension was centrifuged to obtain precipitate and supernatants. Solubility, purity and pH were tested for the supernatants after filtration, and isolated precipitate was tested by XRPD.
as §3

[6] = Phase I PK study, intranasal, cotton rats (plasma, lungs, BAL); format: in vivo, Sigmodon hispidus cotton rats
From the text: (§4) Fifty (50) inbred, 6-8 week old, Sigmodon hispidus female and male cotton rats (source: Sigmovir Biosystems, Inc., Rockville MD) were maintained and handled under veterinary supervision in accordance with the National Institutes of Health guidelines and Sigmovir Institutional Animal Care and Use Committee's approved animal study protocol (IACUC Protocol #15). Fifteen animals were used in Phase I and 35 animals in Phase II studies. Each group of 5 animals included 3 females (the first three animals in each group) and 2 males (the last 2 animals in each group). Groups of even number of animals included equal number of males and females. Cotton rats were housed in clear polycarbonate cages and provided with standard rodent chow (Harlan #7004) and tap water ad lib.
To prepare excipient solution, 125 mg of citric acid anhydrous and 972 mg of lactose anhydrous were dissolved in water by adding 6 ml to the powder. The solution was vortexed. Final volume was adjusted to 10 mL with water for final concentration of 65 mM citric acid anhydrous and 284 mM lactose anhydrous. The solution was stored at 4±2° C.
(§5) Step 1. Divided 15 young S. hispidus (6-8 week old) between 3 groups (3 females and 2 males per group). Eartaged, weighed, and eyebleed all animals under isoflurane anesthesia for serum and plasma. Treated all animals intranasally with the solution indicated in Table 8-1 below, 5 0 μl/100 g animal (administered in both nostrils).
(§6) Step 2. Measured weight, collected clinical observations (e.g., changes in appearance, movement, posture), and repeated treatments on all animals as in Step 1.
Step 3. Measured weight, collected clinical observations (e.g., changes in appearance, movement, posture), and repeated treatments on all animals as in Step 1.
Step 4. Measured weight, collected clinical observations (e.g., changes in appearance, movement, posture), and repeated treatments on all animals as in Step 1.
Step 5. Measured weight, collected clinical observations, and repeated treatment on all animals as described in Step 1. After 1 h Step 6, terminally bled one animal from each group, followed by the necropsy with gross pathology examination and collection of BAL (right lung) and lung samples (left lung) for the PK assessment. After 3 h Step 7, terminally bled the second animal from each group, followed by the necropsy with gross pathology examination and collection of BAL and lung samples for the PK assessment.
Step 8. Terminally bled the third animal from each group, followed by the necropsy with gross pathology examination and collection of BAL and lung samples for the PK assessment.
Step 9. […]
Step 10. Measured weight and collected clinical observations on the remaining animals. […]

[7] = Tolerability (weight, clinical observations, gross pathology) in the Phase I study; format: in vivo, Sigmodon hispidus cotton rats
From the text: as §4, §5, §6
Step 5. Measured weight, collected clinical observations, and repeated treatment on all animals as described in Step 1. […]

[8] = DVS (dynamic vapor sorption) moisture uptake; format: physicochemical
Method: (FIG. 5). Sample weight decreased rapidly when humidity decreased from 10% to 0%, which might be caused by loss of crystalline water.
DVS was measured via a SMS (Surface Measurement Systems) DVS Intrinsic.

[9] = Thermodynamic relationships study: slurry competition in acetone/H2O systems; format: physicochemical; conditions: RT
Method: Slurry competition was conducted in acetone/H2O systems with various water activities (0.0-1.0). […] Solids were separated and tested by XRPD.
(§7) To measure the solubility of freeform in acetone/H2O systems with various water activities, the above experiments were re-performed with addition of aw=0.3 acetone/H2O system. The suspension sample was centrifuged to obtain precipitate and supernatants. Solubility was tested for the supernatants after filtration, and isolated precipitate was tested by XRPD.
Solids were separated and tested by XRPD.

[10] = Solubility of freeform in acetone/H2O systems with various water activities; format: physicochemical; conditions: thermodynamic from solid
Method: as §7

[11] = XRPD before and after drying (form stability on drying); format: physicochemical; conditions: wet cake, vacuum drying at RT for about 3 hours

CC(=O)NCC1CCN(Cc2cc(Oc3ccc(N4CCN(CCC(=O)O)CC4)nc3)nc(-c3cc(Cl)cc(Cl)c3)c2)CC1 [Compound (I) freeform]
pKa ([1]; 36.4% MeOH in water, MeOH concentration of 36.4%, read-out: psKa (apparent pKa 1), UV-metric): 1.84
pKa ([1]; 48.2% MeOH in water, MeOH concentration of 48.2%, read-out: psKa (apparent pKa 1), UV-metric): 1.56
pKa ([1]; 63.9% MeOH in water, MeOH concentration of 63.9%, read-out: psKa (apparent pKa 1), UV-metric): 1.27
pKa ([1]; MeOH cosolvent, Yasuda-Shedlovsky extrapolation, psKa out of effective pH range 2-12, reference only, read-out: pKa 1, UV-metric): 2.21
pKa ([1]; MeOH cosolvent, Yasuda-Shedlovsky extrapolation, read-out: pKa 2, UV-metric): 6.98
pKa ([1]; MeOH cosolvent, Yasuda-Shedlovsky extrapolation, read-out: pKa 3, UV-metric): 7.68
pKa ([2]; read-out: pKa 1, pH-metric): 3.41
pKa ([2]; read-out: pKa 2, pH-metric): 6.99
pKa ([2]; read-out: pKa 3, pH-metric): 7.56
logD at 24 h ([3]; n-octanol/aqueous buffer (pH 7.4), n-octanol/aqueous pH 7.4, three runs, read-out: Average of LogD7.4): 2.23
LogD7.4 ([3]; n-octanol/aqueous pH 7.4, single runs 1-3): 2.24 and 2.23
Average of LogD7.4 ([3]; n-octanol/aqueous pH 7.4, three runs): 2.23
Final pH in aqueous phase ([3]; runs 1-3): 7.3
Concentration, Oil (n-octanol phase) ([3]; shake flask, 25° C., 24 h, runs 1-3): 1.14 mg/mL and 1.10 mg/mL and 1.07 mg/mL
Concentration, Aqueous ([3]; shake flask, pH 7.4 buffer, 25° C., 24 h, runs 1-3): 7 µg/mL and 6 µg/mL
S: solubility [4]: 0.02 mg/mL
S: solubility [5]: > 36.9 mg/mL

CC(=O)NCC1CCN(Cc2cc(Oc3ccc(N4CCN(CCC(=O)O)CC4)nc3)nc(-c3cc(Cl)cc(Cl)c3)c2)CC1 [Compound (I)]
dose dependence of concentration in plasma and lungs ([6]; 0.1, 0.3, 1 mg/kg, highest level with 1 mg/kg 1 hr post-treatment): dose-dependent effect
persistence of level in plasma and lungs ([6]; after last intranasal dose, depending on the dose): remained elevated for several hours
detection in BALF ([6]; intranasal QD for 5 days, 0.1, 0.3, 1 mg/kg per day): much less so in BALF
detection in plasma and lungs ([6]; intranasal QD for 5 days, 0.1, 0.3, 1 mg/kg per day, 1-24 h after last dose): detectable in the plasma and lungs
noticeable effect (blood clotting) ([7]; highest dose 1 mg/kg/day, one animal, terminal bleed): apparent increase in blood clotting time in one of the animals
tolerability ([7]; intranasal QD for 5 consecutive days, 0.1, 0.3, 1 mg/kg per day): well tolerated

CC(=O)NCC1CCN(Cc2cc(Oc3ccc(N4CCN(CCC(=O)O)CC4)nc3)nc(-c3cc(Cl)cc(Cl)c3)c2)CC1 [Freeform Type B]
Moisture Uptake (DVS) ([8]; 25° C., from 0% RH to 80% RH): 6.3%
hygroscopicity ([8]; European pharmacopoeia 5.0 criteria, from DVS 0-80% RH at 25° C.): hygroscopic
form change after DVS test (XRPD) ([8]; XRPD before and after DVS): No form change
water activity (aw) at which the form was obtained [9]: below 0.2
solubility at 2 days ([10]; acetone (aw 0), organic solvent or mixture, Acetone, aw 0, RT): 810 µg/mL (≈ 1.26 mM)
solubility at 2 days ([10]; acetone/H2O (986:14), aw 0.2, organic solvent or mixture, Acetone/H2O (986:14), aw 0.2, RT): 3960 µg/mL (≈ 6.18 mM)

CC(=O)NCC1CCN(Cc2cc(Oc3ccc(N4CCN(CCC(=O)O)CC4)nc3)nc(-c3cc(Cl)cc(Cl)c3)c2)CC1 [Freeform Type C]
form change on drying (XRPD) [11]: transformed to freeform Type A; also recorded: Transferred to freeform Type A after drying at RT
